# In publication PMC10382584, “Macrocyclization of linear molecules by deep learning to facilitate macrocyclic drug candidates discovery” (Nature Communications, 2023):
# Columns and labels:
# Test in all cases: biochemical
# Parameters in all cases: DiscoveRx KINOMEscan competition binding, percent of DMSO control signal at 100 nM
# Settings in all cases: read-out: Fig. 4a / Percent Control / Compound 1; percent of DMSO control, competition binding
# [1] = molecular target: T1, ABL1(Y253F)-phosphorylated (Homo sapiens, UniProt P00519, Y253F)
# T1 construct: phosphorylated
# Description: (§1) The kinase selectivity profile was performed by using the DiscoveRx KINOMEscan platform. […] Test compounds were prepared as 40× stocks in 100% DMSO and directly diluted into the assay. The results were defined as a percentage of signal between the negative (DMSO, 100% control) and the positive (control compound, 0% control) control, which was calculated as follows: percent control = [(test compound signal − positive control signal)/(negative control signal − positive control signal)] × 100.
# [2] = molecular target: CDK8 (Homo sapiens, UniProt P49336)
# Description: as §1
# [3] = molecular target: EGFR(L747-E749del, A750P) (Homo sapiens, UniProt P00533, A750P/DEL747-749)
# Description: as §1
# [4] = molecular target: T2, ERK3 (Homo sapiens, UniProt Q16659)
# T2 construct: gene MAPK6
# Description: as §1
# [5] = molecular target: FGFR2 (Homo sapiens, UniProt P21802)
# Description: as §1
# [6] = molecular target: FGFR4 (Homo sapiens, UniProt P22455)
# Description: as §1
# [7] = molecular target: FRK (Homo sapiens, UniProt P42685)
# Description: as §1
# [8] = molecular target: GRK1 (Homo sapiens, UniProt Q15835)
# Description: as §1
# [9] = molecular target: T3, IKK-epsilon (Homo sapiens, UniProt Q14164)
# T3 construct: gene IKBKE
# Description: as §1
# [10] = molecular target: T4, LKB1 (Homo sapiens, UniProt Q15831)
# T4 construct: gene STK11
# Description: as §1
# [11] = molecular target: MAK (Homo sapiens, UniProt P20794)
# Description: as §1
# [12] = molecular target: MAP3K1 (Homo sapiens, UniProt Q13233)
# Description: as §1
# [13] = molecular target: MAP3K15 (Homo sapiens, UniProt Q6ZN16)
# Description: as §1
# [14] = molecular target: MARK2 (Homo sapiens, UniProt Q7KZI7)
# Description: as §1
# [15] = molecular target: T5, MEK5 (Homo sapiens, UniProt Q13163)
# T5 construct: gene MAP2K5
# Description: as §1
# [16] = molecular target: NEK2 (Homo sapiens, UniProt P51955)
# Description: as §1
# [17] = molecular target: PAK3 (Homo sapiens, UniProt O75914)
# Description: as §1
# [18] = molecular target: PDPK1 (Homo sapiens, UniProt O15530)
# Description: as §1
# [19] = molecular target: T6, PFTAIRE2 (Homo sapiens, UniProt Q96Q40)
# T6 construct: gene CDK15
# Description: as §1
# [20] = molecular target: PIK3C2B (Homo sapiens, UniProt O00750)
# Description: as §1
# [21] = molecular target: ROCK1 (Homo sapiens, UniProt Q13464)
# Description: as §1
# [22] = molecular target: ROS1 (Homo sapiens, UniProt P08922)
# Description: as §1
# [23] = molecular target: T7, RSK1(Kin.Dom.2-C-terminal) (Homo sapiens, UniProt Q15418)
# T7 construct: gene RPS6KA1; Kin.Dom.2-C-terminal
# Description: as §1
# [24] = molecular target: TLK2 (Homo sapiens, UniProt Q86UE8)
# Description: as §1
# [25] = molecular target: WNK4 (Homo sapiens, UniProt Q96J92)
# Description: as §1
# 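Further: KINOMEscan kinase panel binding assay, signal normalized between DMSO as 100% and a positive control compound as 0%.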
# T5 sequence (Q13163 whole entry): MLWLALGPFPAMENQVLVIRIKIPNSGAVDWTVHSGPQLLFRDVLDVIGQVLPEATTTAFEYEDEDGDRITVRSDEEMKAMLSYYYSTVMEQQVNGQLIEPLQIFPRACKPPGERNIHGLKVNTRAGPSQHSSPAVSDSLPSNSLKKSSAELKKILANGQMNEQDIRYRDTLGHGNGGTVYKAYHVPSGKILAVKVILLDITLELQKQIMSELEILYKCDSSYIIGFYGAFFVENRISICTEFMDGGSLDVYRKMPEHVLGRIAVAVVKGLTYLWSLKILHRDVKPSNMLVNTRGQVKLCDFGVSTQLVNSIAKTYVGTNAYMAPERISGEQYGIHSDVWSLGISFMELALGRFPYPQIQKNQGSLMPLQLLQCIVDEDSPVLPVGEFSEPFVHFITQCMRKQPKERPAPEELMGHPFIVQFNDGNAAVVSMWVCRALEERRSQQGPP
# Chain of GRK1 (Q15835 whole entry): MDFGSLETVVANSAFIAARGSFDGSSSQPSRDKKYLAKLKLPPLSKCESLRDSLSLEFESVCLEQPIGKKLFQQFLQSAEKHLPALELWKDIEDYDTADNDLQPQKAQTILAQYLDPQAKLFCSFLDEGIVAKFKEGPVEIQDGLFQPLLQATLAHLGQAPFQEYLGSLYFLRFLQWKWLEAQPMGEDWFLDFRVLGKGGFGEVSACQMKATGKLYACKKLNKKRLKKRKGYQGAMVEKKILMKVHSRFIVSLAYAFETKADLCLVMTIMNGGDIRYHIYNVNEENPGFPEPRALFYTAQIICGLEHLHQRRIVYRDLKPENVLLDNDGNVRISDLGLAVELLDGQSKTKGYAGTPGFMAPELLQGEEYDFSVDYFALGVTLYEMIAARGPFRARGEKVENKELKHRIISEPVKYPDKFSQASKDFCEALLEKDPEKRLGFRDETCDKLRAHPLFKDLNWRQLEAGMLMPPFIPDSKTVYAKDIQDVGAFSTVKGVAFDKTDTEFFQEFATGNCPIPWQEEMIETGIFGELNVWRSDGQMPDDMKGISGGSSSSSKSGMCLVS
# Chain of WNK4 (Q96J92 whole entry): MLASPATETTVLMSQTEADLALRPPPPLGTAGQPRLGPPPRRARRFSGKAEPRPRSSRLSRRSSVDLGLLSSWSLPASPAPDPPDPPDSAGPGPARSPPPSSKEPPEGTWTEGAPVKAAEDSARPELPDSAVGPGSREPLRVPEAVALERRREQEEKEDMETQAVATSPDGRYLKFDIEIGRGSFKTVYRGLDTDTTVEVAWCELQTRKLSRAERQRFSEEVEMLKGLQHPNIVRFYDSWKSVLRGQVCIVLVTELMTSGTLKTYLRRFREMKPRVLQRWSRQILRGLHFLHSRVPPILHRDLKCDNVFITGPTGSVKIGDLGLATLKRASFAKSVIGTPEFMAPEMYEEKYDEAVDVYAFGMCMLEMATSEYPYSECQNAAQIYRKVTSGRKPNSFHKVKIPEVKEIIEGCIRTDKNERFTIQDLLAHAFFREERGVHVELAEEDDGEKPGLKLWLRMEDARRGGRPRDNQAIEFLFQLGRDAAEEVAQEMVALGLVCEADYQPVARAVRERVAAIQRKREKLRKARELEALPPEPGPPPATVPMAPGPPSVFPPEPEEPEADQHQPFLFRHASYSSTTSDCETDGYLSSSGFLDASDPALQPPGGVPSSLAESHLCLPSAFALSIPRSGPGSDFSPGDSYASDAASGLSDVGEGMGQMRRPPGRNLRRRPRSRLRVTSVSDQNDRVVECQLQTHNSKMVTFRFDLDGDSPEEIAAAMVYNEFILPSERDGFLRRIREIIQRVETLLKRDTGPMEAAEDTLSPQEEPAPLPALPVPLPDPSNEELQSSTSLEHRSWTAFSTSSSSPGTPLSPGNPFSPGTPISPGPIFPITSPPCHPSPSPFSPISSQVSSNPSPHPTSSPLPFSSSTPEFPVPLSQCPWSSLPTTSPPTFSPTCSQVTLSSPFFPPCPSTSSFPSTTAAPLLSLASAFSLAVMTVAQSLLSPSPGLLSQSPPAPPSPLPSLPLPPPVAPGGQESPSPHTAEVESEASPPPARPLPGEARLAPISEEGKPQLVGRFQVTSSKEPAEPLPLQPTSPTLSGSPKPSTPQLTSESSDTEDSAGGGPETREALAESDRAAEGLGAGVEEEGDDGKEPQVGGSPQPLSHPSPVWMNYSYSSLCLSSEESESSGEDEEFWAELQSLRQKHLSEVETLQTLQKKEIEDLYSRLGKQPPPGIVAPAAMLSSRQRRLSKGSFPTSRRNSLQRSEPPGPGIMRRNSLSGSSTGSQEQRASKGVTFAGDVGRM
# Chain of PDPK1 (O15530 whole entry): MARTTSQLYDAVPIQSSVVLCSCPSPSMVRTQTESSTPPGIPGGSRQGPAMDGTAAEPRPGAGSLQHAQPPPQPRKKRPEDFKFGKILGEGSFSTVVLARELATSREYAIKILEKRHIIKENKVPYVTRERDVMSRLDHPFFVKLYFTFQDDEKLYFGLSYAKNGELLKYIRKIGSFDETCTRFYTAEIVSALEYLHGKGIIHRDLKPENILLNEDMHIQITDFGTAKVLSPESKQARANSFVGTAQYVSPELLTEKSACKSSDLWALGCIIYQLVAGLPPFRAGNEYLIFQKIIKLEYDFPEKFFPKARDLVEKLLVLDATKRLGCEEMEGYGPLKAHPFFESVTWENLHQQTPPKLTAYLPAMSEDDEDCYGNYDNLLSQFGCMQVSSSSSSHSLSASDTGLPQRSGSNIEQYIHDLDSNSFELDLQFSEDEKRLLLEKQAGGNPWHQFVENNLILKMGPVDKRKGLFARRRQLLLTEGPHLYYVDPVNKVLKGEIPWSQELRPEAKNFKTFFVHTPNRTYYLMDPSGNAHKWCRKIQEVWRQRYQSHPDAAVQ
# Chain of MAK (P20794 whole entry): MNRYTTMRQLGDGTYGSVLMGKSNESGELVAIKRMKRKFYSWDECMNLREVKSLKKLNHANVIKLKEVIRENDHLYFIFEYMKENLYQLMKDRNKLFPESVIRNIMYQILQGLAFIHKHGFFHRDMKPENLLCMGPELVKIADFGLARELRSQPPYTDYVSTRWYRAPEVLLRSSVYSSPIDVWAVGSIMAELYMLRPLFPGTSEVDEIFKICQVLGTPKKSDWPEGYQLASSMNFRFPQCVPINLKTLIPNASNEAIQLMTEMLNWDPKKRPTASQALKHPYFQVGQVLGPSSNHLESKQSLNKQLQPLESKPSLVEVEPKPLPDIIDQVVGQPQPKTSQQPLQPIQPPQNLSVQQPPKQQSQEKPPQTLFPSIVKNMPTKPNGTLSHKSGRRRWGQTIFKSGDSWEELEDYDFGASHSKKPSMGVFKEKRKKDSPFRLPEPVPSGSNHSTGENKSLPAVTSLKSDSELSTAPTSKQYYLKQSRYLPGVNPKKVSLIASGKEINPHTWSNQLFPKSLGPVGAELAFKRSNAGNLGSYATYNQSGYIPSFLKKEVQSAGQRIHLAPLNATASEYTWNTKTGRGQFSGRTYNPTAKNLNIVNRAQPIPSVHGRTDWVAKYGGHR
# Chain of FGFR4 (P22455 whole entry): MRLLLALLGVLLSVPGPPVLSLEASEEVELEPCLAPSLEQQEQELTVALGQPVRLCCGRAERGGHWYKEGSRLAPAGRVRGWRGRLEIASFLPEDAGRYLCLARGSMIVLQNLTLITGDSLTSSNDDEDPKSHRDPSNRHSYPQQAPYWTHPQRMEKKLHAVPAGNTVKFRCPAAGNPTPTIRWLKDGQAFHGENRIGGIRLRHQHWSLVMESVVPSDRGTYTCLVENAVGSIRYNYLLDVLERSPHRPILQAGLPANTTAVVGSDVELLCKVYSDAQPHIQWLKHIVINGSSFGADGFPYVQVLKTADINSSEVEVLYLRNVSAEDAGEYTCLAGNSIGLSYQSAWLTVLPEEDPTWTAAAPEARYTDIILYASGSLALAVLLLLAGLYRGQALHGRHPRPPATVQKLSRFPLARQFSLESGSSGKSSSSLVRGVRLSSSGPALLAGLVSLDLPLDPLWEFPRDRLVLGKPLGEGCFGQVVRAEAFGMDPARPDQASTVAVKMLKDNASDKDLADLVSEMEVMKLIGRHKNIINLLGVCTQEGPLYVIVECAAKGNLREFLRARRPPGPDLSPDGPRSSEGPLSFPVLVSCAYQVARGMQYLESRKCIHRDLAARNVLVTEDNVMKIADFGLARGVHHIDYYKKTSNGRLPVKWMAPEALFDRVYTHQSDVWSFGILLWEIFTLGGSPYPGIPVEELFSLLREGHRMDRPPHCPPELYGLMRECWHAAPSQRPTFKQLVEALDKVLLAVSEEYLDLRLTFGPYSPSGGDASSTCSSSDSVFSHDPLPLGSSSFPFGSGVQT
# Chain of FGFR2 (P21802 whole entry): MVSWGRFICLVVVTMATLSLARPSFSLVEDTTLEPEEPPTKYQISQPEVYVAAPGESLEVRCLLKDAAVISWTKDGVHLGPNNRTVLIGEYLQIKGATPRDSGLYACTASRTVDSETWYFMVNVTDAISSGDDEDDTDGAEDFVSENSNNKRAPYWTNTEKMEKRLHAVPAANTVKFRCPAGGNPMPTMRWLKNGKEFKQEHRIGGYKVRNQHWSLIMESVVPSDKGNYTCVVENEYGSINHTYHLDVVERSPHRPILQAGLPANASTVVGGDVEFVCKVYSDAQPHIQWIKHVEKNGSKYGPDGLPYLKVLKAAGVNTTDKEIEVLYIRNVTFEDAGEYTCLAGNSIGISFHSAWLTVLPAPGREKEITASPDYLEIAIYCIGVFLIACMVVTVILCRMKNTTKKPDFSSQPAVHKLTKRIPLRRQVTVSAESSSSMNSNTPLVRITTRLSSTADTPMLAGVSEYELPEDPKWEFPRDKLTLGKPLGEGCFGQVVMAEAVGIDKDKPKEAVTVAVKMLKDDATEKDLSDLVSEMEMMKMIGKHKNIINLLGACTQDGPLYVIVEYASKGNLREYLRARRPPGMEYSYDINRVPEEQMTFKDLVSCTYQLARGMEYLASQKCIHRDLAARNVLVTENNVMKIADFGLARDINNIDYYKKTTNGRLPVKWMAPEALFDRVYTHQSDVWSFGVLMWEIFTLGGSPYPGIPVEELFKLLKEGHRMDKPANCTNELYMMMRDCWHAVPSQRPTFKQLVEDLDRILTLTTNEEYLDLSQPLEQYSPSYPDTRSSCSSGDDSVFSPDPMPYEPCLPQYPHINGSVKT
smiles,measurement,setting,value
Cc1cnc2nc1Nc1cccc(c1)COCc1cc(ccc1OCCN1CCCC1)N2 [Compound 1],remaining binding at 0.1 µM,[1],64%
same,remaining binding at 0.1 µM,[2],100%
same,remaining binding at 0.1 µM,[3],88%
same,remaining binding at 0.1 µM,[4],82%
same,remaining binding at 0.1 µM,[5],79%
same,remaining binding at 0.1 µM,[6],97%
same,remaining binding at 0.1 µM,[7],84%
same,remaining binding at 0.1 µM,[8],77%
same,remaining binding at 0.1 µM,[9],100%
same,remaining binding at 0.1 µM,[10],100%
same,remaining binding at 0.1 µM,[11],100%
same,remaining binding at 0.1 µM,[12],79%
same,remaining binding at 0.1 µM,[13],68%
same,remaining binding at 0.1 µM,[14],89%
same,remaining binding at 0.1 µM,[15],22%
same,remaining binding at 0.1 µM,[16],83%
same,remaining binding at 0.1 µM,[17],100%
same,remaining binding at 0.1 µM,[18],98%
same,remaining binding at 0.1 µM,[19],85%
same,remaining binding at 0.1 µM,[20],97%
same,remaining binding at 0.1 µM,[21],88%
same,remaining binding at 0.1 µM,[22],76%
same,remaining binding at 0.1 µM,[23],98%
same,remaining binding at 0.1 µM,[24],100%
same,remaining binding at 0.1 µM,[25],48%
